# Tests used:
# [1] = system: interleukins and chemokines
# Source text: Luminex Multiplex Bead Immunoassays: The release of […] inflammatory analytes into the mouse tissue culture supernatant, obtained as above, was quantified with a Luminex 100™ using microsphere-based multiplexing technology. The mouse cytokine twenty plex immune kit was comprised of analyte specific components for the simultaneous measurement of the following mouse cytokines (FGF-basic, IL-1α, IL-1β, IL-2, IL-4, IL-5, IL-6, IL-10, IL-12p70, IL-13, IL-17, TNF-α, IFN-γ, GM-CSF, KC, MCP-1, MIG, MIP-1α, IP-10 and VEGF) (Invitrogen, Carlsbad, Calif.).
# [2] = system: nitrite (nitric oxide); experiment: Nitrite release (Griess reaction) from organ cultured muscularis; format: in vivo, rat
# Protocol: (§1) Age matched animals treated with vehicle (normal saline) or valine (263.5 mg/kg, osmotic control) at appropriate time points and at equal volumes served as controls.
# (§2) The rodent intestine was subjected to a standardized degree of surgical manipulation as described previously (14). Rats were anesthetized by isoflurane inhalation and the abdomen was opened by a midline laparotomy. The cecum was eventrated and laid out onto a moist gauze. Then, the intestine was inspected along its length and gently compressed using moist cotton applicators. The midline incision was closed by two layers of continuous sutures. All operative procedures were performed under sterile conditions with the intestine being handled only by instruments and never touched directly. Animals were killed at specific time points postoperatively by isoflurane anesthesia inhalation overdose and heart incision.
# Tissue culture and determination of nitrite and prostanoid release in supernatant: The rat small intestine and colon were processed for tissue culture at 24 hours as described previously, (N=5-8) (25). Briefly, the muscularis was isolated by stripping the muscularis from the mucosa and then cut into small pieces and washed twice in Hank's balanced salt solution (HBSS) with 100 U/ml penicillin G and 100 μg/ml streptomycin. Aliquots of muscularis ([…]) were incubated (37° C., 5% CO2) in 6-well tissue culture plates containing 3 ml of supplemented Dulbecco's modified Eagle medium (DMEM)-F12 with 100 U/ml penicillin G and 100 μg/ml streptomycin. After an incubation period of 24 hours, 500 μl aliquots of supernatant were collected, frozen in liquid nitrogen and stored at −80° C. The muscle tissue was blotted dry, and the weight was estimated. To estimate the generation of NO from the intestinal muscularis, nitrite production was measured by the Griess reaction (44). Supernatant from the tissue culture was mixed with equal amount of Griess reagent (0.1% N-(1-naphtyl)ethyl-enediamine dihydrochloride and 1% sulfanilamide in 6% phosphoric acid; 1:1) and incubated at room temperature for 10 minutes. The absorbance at 550 nm was measured with a microplate reader and compared with standard prepared from serial dilutions of sodium nitrite. Each standard and supernatant sample was analyzed in duplicate, and the mean value of nitrite production was normalized to the tissue weight.
# (§3) Methods: ACI-rats (180-220 g) underwent standardized surgical manipulation of the intestine. […] Age matched animals treated with vehicle or valine (osmotic control) at appropriate time points and at equal volumes served as controls. […] Postoperative mediator mRNA expression in the intestinal muscularis was determined by real-time RT PCR. Leukocyte extravasation was investigated in muscularis whole-mounts. Nitrite production was measured in muscularis cultures. In vivo transit of FITC-dextran was measured using geometric center analysis (GC). In vitro circular muscle contractility was assessed in a standard organ bath. Statistical analysis: unpaired Student t test, p<0.05, mean±SEM.
# [3] = system: COX-2 mRNA; details: glycine 170 mg/kg, 3 hours postoperatively; SM 3.2-fold; not significant
# Protocol: as §1
# The rodent intestine was subjected to a standardized degree of surgical manipulation as described previously (14). Rats were anesthetized by isoflurane inhalation and the abdomen was opened by a midline laparotomy. The cecum was eventrated and laid out onto a moist gauze. Then, the intestine was inspected along its length and gently compressed using moist cotton applicators. The midline incision was closed by two layers of continuous sutures. All operative procedures were performed under sterile conditions with the intestine being handled only by instruments and never touched directly. […]
# mRNA Expression Analysis: Postoperative mediator mRNA expressions in the small intestinal muscularis were analyzed using SYBR Green two-step real-time RT-PCR as previously described, (N=4-6). […] Equal aliquots (200 ng) of total RNA from each sample, quantified by spectrophotometer, were processed for complimentary DNA (cDNA) synthesis. […] The efficiency and equality of the real-time PCR primer pairs were determined by amplifying serial dilutions of muscularis cDNA. […] Relative quantification was performed using the comparative CT method as described by Schmittgen et al. (42).
# [4] = system: C57Bl/6 mice with surgical manipulation (SM); details: SM+glycine 170 mg/kg, control=11.0±0.44, SM=4.1±0.18, SM+saline=4.1±0.5
# Protocol: as §1
# [5] = system: IL-6 mRNA; experiment: Real-time RT-PCR of muscularis IL-6 mRNA 3 hours postoperatively; format: in vivo, rat
# Protocol: as §1, §2
# (§4) mRNA Expression Analysis: Postoperative mediator mRNA expressions in the small intestinal muscularis were analyzed using SYBR Green two-step real-time RT-PCR as previously described, (N=4-6). […] Total mRNA extraction was performed using the guanidium-thiocyanate phenol-chloroform extraction method. Equal aliquots (200 ng) of total RNA from each sample, quantified by spectrophotometer, were processed for complimentary DNA (cDNA) synthesis. Primer sequences were used as described previously (tumor necrosis factor-a, TNF-a) (35), or designed according to published sequences 36-41, (GenBank accession numbers: NM_017008 [glyceraldehyde phosphate dehydrogenase (GAPDH)], AF233596 [cyclo-oxygenase-2 (COX-2)], NM_012967 [intercellular adhesion molecule-1 (ICAM-1)], M26744 [interleukin-6 (IL-6)] and NM_012611 [inducible nitric oxide synthase (iNOS)]), using Primer Express software (PE Applied Biosystems, Foster City, Calif.) and purchased from Life Technologies (Rockville, Md.). GAPDH was used as an endogenous control. The efficiency and equality of the real-time PCR primer pairs were determined by amplifying serial dilutions of muscularis cDNA. For each target gene different MgCl2 (3 to 5 mM) concentrations were tested to optimize the PCR amplification. […] Relative quantification was performed using the comparative CT method as described by Schmittgen et al. (42).
# Methods: ACI-rats (180-220 g) underwent standardized surgical manipulation of the intestine. […] Postoperative mediator mRNA expression in the intestinal muscularis was determined by real-time RT PCR. […] Nitrite production was measured in muscularis cultures. In vivo transit of FITC-dextran was measured using geometric center analysis (GC). In vitro circular muscle contractility was assessed in a standard organ bath. […]
# [6] = 170 mg/kg intravenously; cited from earlier work
# [7] = system: iNOS mRNA; details: 3 hours postoperatively
# Protocol: as §1, §2
# as §4, with “amplification. Agarose gel electrophoretic analysis was used to verify the presence of a single product and that the amplified product corresponded to size predicted for the amplicon. The PCR reaction mixture was prepared using the SYBR Green PCR Core Reagents (PE Applied Biosystems, Foster City, Calif.). PCR conditions on an ABI PRISM 7700 Sequence Detection System (PE Applied Biosystems, Foster City, Calif.) were as recommended by the manufacturer. Each sample was estimated in duplicate.” for “amplification.”
# as §3
# [8] = system: TNF-α mRNA; details: 3 hours postoperatively
# Protocol: as §1, §2
# as §4, with “amplification. Agarose gel electrophoretic analysis was used to verify the presence of a single product and that the amplified product corresponded to size predicted for the amplicon. The PCR reaction mixture was prepared using the SYBR Green PCR Core Reagents (PE Applied Biosystems, Foster City, Calif.). PCR conditions on an ABI PRISM 7700 Sequence Detection System (PE Applied Biosystems, Foster City, Calif.) were as recommended by the manufacturer. Each sample was estimated in duplicate.” for “amplification.”
# as §3
# [9] = system: ICAM-1 mRNA; details: 3 hours postoperatively
# Protocol: as §1, §2
# as §4, with “amplification. Agarose gel electrophoretic analysis was used to verify the presence of a single product and that the amplified product corresponded to size predicted for the amplicon. The PCR reaction mixture was prepared using the SYBR Green PCR Core Reagents (PE Applied Biosystems, Foster City, Calif.). PCR conditions on an ABI PRISM 7700 Sequence Detection System (PE Applied Biosystems, Foster City, Calif.) were as recommended by the manufacturer. Each sample was estimated in duplicate.” for “amplification.”
# as §3
smiles,measurement,setting,value
NCC(=O)O [glycine],"interleukins and chemokines released into organ culture media, colonic muscularis externa","[1]; manipulated colonic muscularis, significance reached by IL-5, IL-6, IL-10, IL-12, KC, MCP-1, MIP1-α and GM-CSF",tended to be quelled
same,"interleukins and chemokines released into organ culture media, jejunal muscularis externa","[1]; manipulated jejunal muscularis, significance reached by IL-6, IP-10 and MIP1-α",tended to be quelled
same,"production of chemokines (IP-10, KC, MCP-1, MIP-1α, VEGF and GM-CSF)","[1]; organ cultured muscularis of jejunum and colon, more dramatic in colon",trend for the inhibition
same,"release of interleukins 5, 6, 10 and 12","[1]; organ cultured muscularis of jejunum and colon, more pronounced in colon",decrease
same,attenuation of postoperative increase in nitrite production,"[2]; Example 5, muscularis cultures, glycine (170 mg) i.v. 1 hour prior to surgery",39%
same,"nitrite release, fold increase over control, colon","[2]; manipulated rats, colonic muscularis 24 h organ culture, glycine 170 mg/kg or valine, SM vehicle 10.9-fold",2.5 fold
same,"nitrite release, fold increase over control, jejunum","[2]; manipulated rats, jejunal muscularis 24 h organ culture, glycine 170 mg/kg or valine, SM vehicle 11.4-fold",2.7 fold
same,Griess reaction measurements from the unmanipulated muscularis,"[2]; unmanipulated, glycine 170 mg/kg",no significant effects
same,COX-2 mRNA postoperative upregulation,[3],2.3 fold
same,geometric center of gastrointestinal transit,[4],10.3±7
same,IL-6 mRNA induction vs non-operated vehicle treated controls,"[5]; glycine pretreatment, 3 hours postoperatively, manipulation alone 8521 fold",2742 fold
same,mediator mRNA levels in non-operated animals vs non-operated vehicle rats,[5]; non-operated glycine injected rats,did not differ
same,postoperative induction of IL-6 mRNA,"[5]; surgically manipulated rats, 3 hours postoperatively",significantly attenuated
same,increase of glycine serum levels,[6],about sevenfold
same,surgical induction of iNOS mRNA,[7]; SM vehicle 197.1-fold,significantly suppressed
same,iNOS mRNA induction vs non-operated vehicle treated controls,"[7]; glycine pretreatment, manipulation alone 197 fold",17 fold
same,TNF-α mRNA induction vs non-operated vehicle treated controls,"[8]; glycine pretreatment, manipulation alone 3.4 fold",1.9 fold
same,postoperative induction of TNF-α mRNA,[8]; surgically manipulated rats,attenuation
same,ICAM-1 mRNA induction vs non-operated vehicle treated controls,"[9]; glycine pretreatment, manipulation alone 21 fold",14 fold
same,postoperative induction of ICAM-1 mRNA,[9]; surgically manipulated rats,attenuation
